Measured values published in ChEMBL document CHEMBL6103568, “An overview of small-molecule agents for the treatment of psoriasis” (Bioorg Med Chem, 2025).

Assays:
Phosphodiesterase 4 = Phosphodiesterase 4 (Homo sapiens, UniProt P27815+Q08499+Q07343+Q08493); assay: Inhibition of PDE4 (unknown origin); assay type: protein assay
[1] = target: Tyrosine-protein kinase JAK2 (Homo sapiens, UniProt O60674); assay: Inhibition of JAK2 (unknown origin)
[2] = target: Sphingosine 1-phosphate receptor 1 (Homo sapiens, UniProt P21453); assay: Agonist activity at S1P1 (unknown origin) by HTRF assay; assay type: functional
Sequence of Sphingosine 1-phosphate receptor 1 (P21453 whole entry): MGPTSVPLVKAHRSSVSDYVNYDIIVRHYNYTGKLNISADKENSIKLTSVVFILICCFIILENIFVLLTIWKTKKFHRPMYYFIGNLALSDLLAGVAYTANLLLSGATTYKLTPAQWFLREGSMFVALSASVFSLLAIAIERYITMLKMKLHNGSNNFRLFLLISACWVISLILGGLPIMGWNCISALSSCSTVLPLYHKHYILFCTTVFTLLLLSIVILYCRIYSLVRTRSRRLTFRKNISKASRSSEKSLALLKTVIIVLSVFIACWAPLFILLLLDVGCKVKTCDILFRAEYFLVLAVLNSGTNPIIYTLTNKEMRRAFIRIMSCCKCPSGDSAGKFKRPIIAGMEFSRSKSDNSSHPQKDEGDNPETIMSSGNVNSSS

[3] = target: 3',5'-cyclic-AMP phosphodiesterase 4B (Homo sapiens, UniProt Q07343); assay: Inhibition of PDE4B (unknown origin)
Sequence of 3',5'-cyclic-AMP phosphodiesterase 4B (Q07343 whole entry): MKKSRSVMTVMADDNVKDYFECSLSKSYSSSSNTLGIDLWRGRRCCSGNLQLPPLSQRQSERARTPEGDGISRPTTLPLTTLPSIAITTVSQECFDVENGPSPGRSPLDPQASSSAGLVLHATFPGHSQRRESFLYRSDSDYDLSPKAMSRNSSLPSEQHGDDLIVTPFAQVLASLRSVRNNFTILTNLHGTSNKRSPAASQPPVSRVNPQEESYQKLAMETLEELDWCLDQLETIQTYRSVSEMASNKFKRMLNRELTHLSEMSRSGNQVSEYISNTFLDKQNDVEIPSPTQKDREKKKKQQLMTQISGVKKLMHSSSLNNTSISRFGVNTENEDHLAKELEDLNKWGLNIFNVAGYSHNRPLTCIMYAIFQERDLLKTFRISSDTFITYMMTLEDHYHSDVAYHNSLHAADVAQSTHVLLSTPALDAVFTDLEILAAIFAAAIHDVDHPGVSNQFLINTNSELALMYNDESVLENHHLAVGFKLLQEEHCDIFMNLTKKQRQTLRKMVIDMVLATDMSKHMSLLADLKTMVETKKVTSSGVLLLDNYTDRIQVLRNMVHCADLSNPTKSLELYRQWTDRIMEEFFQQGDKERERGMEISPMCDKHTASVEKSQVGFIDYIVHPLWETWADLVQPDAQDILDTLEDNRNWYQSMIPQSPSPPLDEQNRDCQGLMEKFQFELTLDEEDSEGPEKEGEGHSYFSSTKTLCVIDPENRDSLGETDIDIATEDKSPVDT

Cytochrome P450 3A5 = Cytochrome P450 3A5 (Homo sapiens, UniProt P20815); assay: Inhibition of CYP3A5 (unknown origin); assay type: ADME
Sequence of Cytochrome P450 3A5 (P20815 whole entry): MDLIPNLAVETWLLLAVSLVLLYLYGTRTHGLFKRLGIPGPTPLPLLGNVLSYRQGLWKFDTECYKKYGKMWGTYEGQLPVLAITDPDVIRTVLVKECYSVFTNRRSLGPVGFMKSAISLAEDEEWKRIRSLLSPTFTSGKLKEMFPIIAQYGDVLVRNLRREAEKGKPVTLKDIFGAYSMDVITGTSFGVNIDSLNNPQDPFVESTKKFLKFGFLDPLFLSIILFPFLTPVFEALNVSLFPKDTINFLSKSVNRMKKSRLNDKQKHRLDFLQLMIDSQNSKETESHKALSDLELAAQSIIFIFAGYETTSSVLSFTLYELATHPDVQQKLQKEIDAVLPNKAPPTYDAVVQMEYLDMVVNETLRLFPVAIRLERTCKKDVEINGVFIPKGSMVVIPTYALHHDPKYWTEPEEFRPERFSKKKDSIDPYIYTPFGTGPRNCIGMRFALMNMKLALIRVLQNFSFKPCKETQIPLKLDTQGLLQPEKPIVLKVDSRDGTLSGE

Sequence of Tyrosine-protein kinase JAK2 (O60674 whole entry): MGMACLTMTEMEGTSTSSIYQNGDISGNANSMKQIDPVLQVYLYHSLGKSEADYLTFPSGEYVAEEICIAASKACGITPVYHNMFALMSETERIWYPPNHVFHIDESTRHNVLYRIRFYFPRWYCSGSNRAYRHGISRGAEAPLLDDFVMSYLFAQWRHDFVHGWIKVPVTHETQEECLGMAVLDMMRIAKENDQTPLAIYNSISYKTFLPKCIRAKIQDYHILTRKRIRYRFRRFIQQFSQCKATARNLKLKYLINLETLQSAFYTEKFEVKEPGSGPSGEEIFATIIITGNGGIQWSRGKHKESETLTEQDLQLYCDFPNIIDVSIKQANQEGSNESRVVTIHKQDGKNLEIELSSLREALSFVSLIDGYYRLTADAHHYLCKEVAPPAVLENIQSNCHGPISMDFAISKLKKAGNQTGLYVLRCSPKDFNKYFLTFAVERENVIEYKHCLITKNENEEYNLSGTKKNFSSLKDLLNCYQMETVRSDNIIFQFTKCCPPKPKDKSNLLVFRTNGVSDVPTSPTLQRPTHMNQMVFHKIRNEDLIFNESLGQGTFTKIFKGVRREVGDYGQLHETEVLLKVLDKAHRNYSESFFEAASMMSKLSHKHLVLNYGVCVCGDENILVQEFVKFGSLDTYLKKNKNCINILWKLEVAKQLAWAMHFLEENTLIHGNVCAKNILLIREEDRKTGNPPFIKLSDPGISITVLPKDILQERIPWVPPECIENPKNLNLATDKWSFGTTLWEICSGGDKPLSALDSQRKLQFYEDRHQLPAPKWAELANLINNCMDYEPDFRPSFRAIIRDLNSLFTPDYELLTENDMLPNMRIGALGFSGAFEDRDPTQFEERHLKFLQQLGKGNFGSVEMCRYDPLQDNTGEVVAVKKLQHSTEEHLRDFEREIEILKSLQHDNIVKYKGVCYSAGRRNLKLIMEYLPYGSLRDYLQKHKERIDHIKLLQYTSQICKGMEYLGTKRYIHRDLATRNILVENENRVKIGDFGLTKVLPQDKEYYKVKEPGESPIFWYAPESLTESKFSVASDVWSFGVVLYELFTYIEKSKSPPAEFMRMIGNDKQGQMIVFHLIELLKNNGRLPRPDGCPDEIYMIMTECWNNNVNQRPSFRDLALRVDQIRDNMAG

In the case of `CCOc1cc([C@@H](CS(C)(=O)=O)N2C(=O)c3csc(NC(C)=O)c3C2=O)ccc1OC`, the IC50 (Phosphodiesterase 4) is reported as 114 nM.

`CCS(=O)(=O)N1CC(CC#N)C1n1cc(-c2ncnc3[nH]ccc23)cn1` (stereo not given) showed an IC50 [1] of 5.7 nM.

`CCC/N=C1/S/C(=C\c2ccc(OC[C@H](O)CO)c(Cl)c2)C(=O)N1c1ccccc1C` was tested, and the EC50 [2] was 6 nM.

`COc1ccc([C@H](N2C(=O)c3cccc(NC(C)=O)c3C2=O)S(C)(=O)=O)cc1OC` gave an IC50 [3] of 74 nM.

In the case of `O=C(O)CC1CCN(C(=O)c2ccc(Cl)c(Cn3ccc4cc(C(F)(F)F)cc(Cl)c43)c2Cl)CC1` [CEDIROGANT], the IC50 (Cytochrome P450 3A5) is reported as 206 nM.
